Literature values as cited in patent US5723149A, “Use of medicago saponins for the preparation of cosmetic or pharmaceutical compositions, especially dermatological compositions, promoting renewal of the epidermis, stimulating hair regrowth or delaying hair loss” (LVMH Recherche, priority 1990, dated 1998).

Experiments:
[1] = B. GESTETNER et al., Experientia, 1971
[2] = DE-3 717 280

For `CC1(C)CC[C@]2(C(=O)O)CC[C@]3(C)C(=CC[C@@H]4[C@@]5(C)C[C@H](O)[C@H](O)[C@@](C)(C(=O)O)[C@@H]5CC[C@]43C)[C@@H]2C1` [medicagenic acid], the hemolytic activity [1] is listed as “hemolytic activity” and the antifungal activity [2] is listed as “antifungal activity”.
